Values belong to the compound of their own block, whether it stands above or below them.
Legend:
diabetic mice = experiment: In vivo anti-diabetic assay (blood glucose, 21 days); design: species or system albino mice
From the text: For in vivo anti-diabetic efficacy, albino mice having weight of 30 g were employed. The animals utilized in experiments were compliant with the 2008 Animal Bye-Laws of the Pharmacy Department at the University of Malakand in Pakistan (Scientific Procedure Issue-I). The animals were handled according to accepted practices and housed in an animal facility during the experimental procedures. The animals were put to death following the experiment in accordance with AVMA rules.
The mice were given 10% alloxan monohydrate at a dose of 150 mg/kg body weight through IP in order to induce diabetes. The control group received a normal saline IP during this trial. Following the administration of alloxan, the animals’ blood glucose levels were checked using a glucometer. According to the protocols, in the in vivo study, mice with elevated blood sugar concentrations were also utilized.
(§1) The mice were placed into 4 groups, with 5 animals in each group having elevated blood glucose levels. Group I was the normal group, which had normal blood glucose levels and was given saline. Group II was treated with a Tween 80 solution; in this group, diabetic mice were kept. Glibenclamide was administered at a 500 μM/Kg dose to group III, which was the control group with diabetic mice. Group IV, the final group, received treatment with different concentrations of the produced substance. The mice were killed after three weeks (21 days) by cervical decapitation, and blood samples and organs were taken for H & E staining-based histological analysis and for bioassays.

Antioxidant (DPPH) test = settings: DPPH free radical scavenging
Experimental: For identifying free radicals and the scavenging potential of new organic compounds, Sigma Aldrich USA’s DPPH was employed. Methanol was employed as a solvent for preparing test samples of varying strengths of the examined substances. Two milliliters of the test sample’s variation strength were blended separately with two milliliters of the DPPH solution and 0.002% methanol. After being stored in the dark and at room temperature for 30 min, test tubes were examined using a UV spectrophotometer to measure the absorbance at 517 nm. As is customary, ascorbic acid was employed here, and the procedure was then repeated three times. Utilizing the formula below, the tested specimen’s scavenging activity was calculated: Scavenging activity % = (A − B)/A × 100. The letters “A” and “B” stand for the absorbance of the DPPH and the test sample, respectively. By plotting a graph of the scavenging effect of the tested compounds versus the concentration of the corresponding solution, IC50 values were determined.

[1] = system: STZ-induced diabetic mice; experiment: Body weight, insulin, lipid profile, serum markers and histopathology in STZ-induced diabetic mice; assay type: in vivo; settings: for histopathology of liver, kidney and pancreas: H & E staining; for effect on body weight of diabetic mice: treated; for insulin levels: treated STZ-induced diabetic mice, untreated diabetic group 2.5 ± 0.15, normal control 13.5 ± 0.95
Experimental: as §1

PTP1 B = molecular target: T1, PTP1 B (Homo sapiens, UniProt P18031); experiment: Protein tyrosine phosphatase 1 B (PTP1 B) test; assay type: biochemical; settings: ± SEM; pH 7, 40 min at 27 °C
T1 sequence (P18031 1-435): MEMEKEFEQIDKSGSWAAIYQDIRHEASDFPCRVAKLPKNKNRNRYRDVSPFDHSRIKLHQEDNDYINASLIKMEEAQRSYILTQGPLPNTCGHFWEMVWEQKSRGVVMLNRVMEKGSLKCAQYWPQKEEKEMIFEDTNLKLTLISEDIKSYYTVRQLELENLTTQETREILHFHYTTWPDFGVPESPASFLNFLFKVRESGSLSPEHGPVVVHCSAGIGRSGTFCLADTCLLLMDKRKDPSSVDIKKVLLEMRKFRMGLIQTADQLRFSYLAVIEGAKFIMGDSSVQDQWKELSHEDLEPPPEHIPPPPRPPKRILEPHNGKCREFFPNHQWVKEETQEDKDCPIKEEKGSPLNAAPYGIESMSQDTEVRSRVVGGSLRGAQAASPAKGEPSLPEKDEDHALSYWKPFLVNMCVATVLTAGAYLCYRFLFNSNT
Experimental: It is performed with a buffer solution of 3,3-dimethyl glutarate at a pH of 7. Additionally, a PTP1 B 10 mM solution, p-NO2-phenol phosphate of 1 mM, and numerous additional concentrations of the substance were made. As a result, the mixtures were incubated for 40 min at 27 °C. Then, measurements of the absorbances were conducted at 405 nm after the designated 40 min.

α-Glucosidase = experiment: Alpha-glucosidase test; assay type: biochemical; settings: ± SEM
Experimental: A concentration of 0.5 mg/11 mL distilled water and a substrate solution of glucopyranoside at 15 mg/10 mL distilled water concentration were added to […] of a phosphate buffer and kept at 37 °C for 20 min, respectively, to prepare the sample. To prepare the control, 1200 μL of the phosphate buffer was added to the test tube. Next, 400 μL of the substrate solution (glucopyranoside 15 mg/10 mL distilled water) and 800 µL of an enzyme solution were mixed. At last, the temperature was kept at 37 °C for 20 min.

α-Amylase = experiment: Alpha-amylase test; assay type: biochemical; settings: ± SEM
Experimental: In order to evaluate the alpha-amylase test, standardized reporting protocols were followed [35]. In order to combine the enzyme and the phosphate buffer, test samples of varying strengths were added to the enzymatic solution. Incubation of the sample was followed by admixing of starch to both the control and test solutions and a dinitro salicylic acid solution. The sample combination was then maintained in a boiling water bath for a short period of time, and a microplate reader was used to measure the absorbance at 656 nm.
The formula below was used to calculate the α-amylase enzyme’s percentage inhibition capability: Percent Inhibition=Absorbance of Control − Absorbance of Sample ×100/Absorbance of Control

DPP-4 = DPP-4 (Homo sapiens, UniProt P27487); experiment: Dipeptidyl peptidase-4 (DPP-4) fluorescence probe test; assay type: biochemical; settings: ± SEM; read-out: IC50 DPP4
Experimental: Our compound’s inhibitory impact on the DPP-4 target was identified by a fluorescence probe in vitro assay. […] In a 96-well microplate reader, the test results were recorded. At first, various concentrations of the chemical were used to determine its action. Then, in accordance with the normal approach, a dose-dependent response was identified in order to estimate the IC50 value.

mice = settings: mouse, in vivo
Experimental: Prior to putting the drug through tests on lab animals, its acute toxicity was determined. Two groups of experimental mice, (1) the control group and (2) the test group, were used for this experiment. Each group consisted of five mice. It was conducted intraperitoneally with different concentrations of the chemical. The mice were then closely examined for three days in the animal home after the chemical was administered to check for death or any unfavorable reactions.

[2] = diabetic mice, compared to diabetic mice not given the medication

Chain of DPP-4 (P27487 whole entry, species assumed): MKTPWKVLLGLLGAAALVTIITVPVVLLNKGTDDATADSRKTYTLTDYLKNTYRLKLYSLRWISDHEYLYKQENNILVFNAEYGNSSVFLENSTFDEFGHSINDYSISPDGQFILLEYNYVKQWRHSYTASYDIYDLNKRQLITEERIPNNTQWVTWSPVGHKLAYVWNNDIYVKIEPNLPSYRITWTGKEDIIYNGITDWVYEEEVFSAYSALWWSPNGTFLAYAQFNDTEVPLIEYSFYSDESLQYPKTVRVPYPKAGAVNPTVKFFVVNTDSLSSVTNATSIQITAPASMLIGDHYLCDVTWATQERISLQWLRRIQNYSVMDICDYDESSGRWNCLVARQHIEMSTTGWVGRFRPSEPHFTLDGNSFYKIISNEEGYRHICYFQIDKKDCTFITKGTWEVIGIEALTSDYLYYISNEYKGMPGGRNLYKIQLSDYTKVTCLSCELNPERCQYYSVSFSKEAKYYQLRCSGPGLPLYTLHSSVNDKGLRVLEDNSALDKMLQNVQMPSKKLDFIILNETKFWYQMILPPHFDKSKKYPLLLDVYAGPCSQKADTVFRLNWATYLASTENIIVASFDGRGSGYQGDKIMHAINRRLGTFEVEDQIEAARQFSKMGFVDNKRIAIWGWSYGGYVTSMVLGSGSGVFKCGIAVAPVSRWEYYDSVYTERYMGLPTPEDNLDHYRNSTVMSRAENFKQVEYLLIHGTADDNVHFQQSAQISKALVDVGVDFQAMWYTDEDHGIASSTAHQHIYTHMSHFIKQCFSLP

Compound: COc1ccc(Cl)cc1C(=O)NCCc1ccc(S(=O)(=O)NC(=O)NC2CCCCC2)cc1 [Glibenclamide, reference compound]
Blood Glucose Level 0 Day (diabetic mice; 250 µM/kg IP): 21.5 mmole per Liter | Blood Glucose Level 7th Day (diabetic mice; 250 µM/kg IP): 17.7 mmole per Liter | Blood Glucose Level 14th Day (diabetic mice; 250 µM/kg IP): 14.5 mmole per Liter | Blood Glucose Level 21st Day (diabetic mice; 250 µM/kg IP): 11.1 mmole per Liter

IC50 (Antioxidant (DPPH) test): 1.44 ± 0.2 µM
Compound: O=C1O[C@H]([C@@H](O)CO)C(O)=C1O [Ascorbic acid, reference compound]

Compound: CN(C)C(=N)N=C(N)N [Metformin, reference compound]
serum ALP ([1]; STZ-induced diabetic mice): suppressed the enhanced rise | serum ALT ([1]; STZ-induced diabetic mice): suppressed the enhanced rise | serum AST ([1]; STZ-induced diabetic mice): suppressed the enhanced rise | histopathology of liver, kidney and pancreas ([1]; STZ-induced diabetic mice): healed from the histological injuries | effect on body weight of diabetic mice ([1]; STZ-induced diabetic mice): recovered their bodyweight | insulin levels [1]: 12.2 ± 0.29 ng/mL

Compound: COc1cc(CC(C)=O)ccc1OC1CC(=O)N(Cc2ccccc2)C1=O (stereo not shown) [Compound 3, 1-benzyl-3-(2-methoxy-4-(2-oxopropyl)phenoxy)pyrrolidine-2,5-dione]
IC50 (PTP1 B): 13.2 ± 0.11 µM | IC50 (α-Glucosidase): 7.2 ± 0.92 µM | IC50 (α-Amylase): 15.4 ± 0.15 µM | IC50 (DPP-4): 0.07 ± 0.03 µM | IC50 (Antioxidant (DPPH) test): 3.31 ± 0.65 µM | Blood Glucose Level 0 Day (diabetic mice; 15.625 µM/kg IP): 22.7 mmole per Liter | Blood Glucose Level 7th Day (diabetic mice; 15.625 µM/kg IP): 19.7 mmole per Liter | Blood Glucose Level 14th Day (diabetic mice; 15.625 µM/kg IP): 17.6 mmole per Liter | Blood Glucose Level 21st Day (diabetic mice; 15.625 µM/kg IP): 15.1 mmole per Liter | Blood Glucose Level 0 Day (diabetic mice; 31.25 µM/kg IP): 22.9 mmole per Liter | Blood Glucose Level 7th Day (diabetic mice; 31.25 µM/kg IP): 19.1 mmole per Liter | Blood Glucose Level 14th Day (diabetic mice; 31.25 µM/kg IP): 17.1 mmole per Liter | Blood Glucose Level 21st Day (diabetic mice; 31.25 µM/kg IP): 13.6 mmole per Liter | Blood Glucose Level 0 Day (diabetic mice; 62.5 µM/kg IP): 23.2 mmole per Liter | Blood Glucose Level 7th Day (diabetic mice; 62.5 µM/kg IP): 19.3 mmole per Liter | Blood Glucose Level 14th Day (diabetic mice; 62.5 µM/kg IP): 16.7 mmole per Liter | Blood Glucose Level 21st Day (diabetic mice; 62.5 µM/kg IP): 13.1 mmole per Liter | Blood Glucose Level 0 Day (diabetic mice; 125 µM/kg IP): 22.6 mmole per Liter | Blood Glucose Level 7th Day (diabetic mice; 125 µM/kg IP): 18.9 mmole per Liter | Blood Glucose Level 14th Day (diabetic mice; 125 µM/kg IP): 16.2 mmole per Liter | Blood Glucose Level 21st Day (diabetic mice; 125 µM/kg IP): 12.8 mmole per Liter | Blood Glucose Level 0 Day (diabetic mice; 250 µM/kg IP): 22.4 mmole per Liter | Blood Glucose Level 7th Day (diabetic mice; 250 µM/kg IP): 18.4 mmole per Liter | Blood Glucose Level 14th Day (diabetic mice; 250 µM/kg IP): 15.7 mmole per Liter | Blood Glucose Level 21st Day (diabetic mice; 250 µM/kg IP): 12.2 mmole per Liter | acute toxicity: allergic reaction (mice): no sign of an allergic reaction | acute toxicity outcome (mice; ip): safe and had no adverse effects | body weight gain ([1]; STZ + compound 3 group (Tg-5), final vs initial day, diabetic group lost 1.9 ± 0.05 g): 1.55 g | BUN ([1]; STZ-induced diabetic mice): decreased the excess peak | HDL levels ([1]; STZ-induced diabetic mice): raising HDL levels | LDL levels ([1]; STZ-induced diabetic mice): dramatically reduced | creatinine ([1]; STZ-induced diabetic mice): decreased the excess peak | serum ALP ([1]; STZ-induced diabetic mice): suppressed the enhanced rise | serum ALT ([1]; STZ-induced diabetic mice): suppressed the enhanced rise | serum AST ([1]; STZ-induced diabetic mice): suppressed the enhanced rise | histopathology of liver, kidney and pancreas ([1]; STZ-induced diabetic mice): healed from the histological injuries | effect on body weight of diabetic mice ([1]; STZ-induced diabetic mice): recovered their bodyweight | reduction of total cholesterol [1, 2]: 34.9% | reduction of total triglycerides [1, 2]: 35.20% | effect on body weight of non-diabetic mice ([1]; non-diabetic group): did not affect the body weights | insulin levels [1]: 10.9 ± 0.25 ng/mL
